Laboratory results: patent publication US10906938B2, “Cell epitopes and combination of cell epitopes for use in the immunotherapy of myeloma and other cancers” (Immatics Biotechnologies GmbH, priority 2015, dated 2021)

How the values were obtained:
Assay type in all cases: cell-based, human
[1] = test system: PBMC obtained from MM patients; assay: 12-day recall IFNγ ELISPOT with PBMC of MM patients
Procedure: PBMC from MM patients and HVs were cultured as described previously. In brief, for CD8^+ T-cell stimulation, PBMC were pulsed with 1 μg/ml per peptide and cultured for 12 days adding IL-4 and IL-7 on day 0 and 1 as well as IL-2 on day 3, 5, 7 and 9. HLA-A*02 (KLFEKVKEV) (SEQ ID NO. 231) and B*07 (KPSEKIQVL) (SEQ ID NO. 232) restricted control peptides derived from benign tissues (HV-exclusive HLA ligands) served as negative control. Peptide-stimulated PBMC were analyzed by ELISPOT assays on day 12. For CD4^+ T-cell stimulation, culture was performed as described for CD8^+ T cells except for 2 modifications: pulsing was carried out with 10 μg/ml of HLA class II peptide and no IL-4 or IL-7 was added.
IFNγ ELISPOT assays were carried out as described previously. In brief, 96-well nitrocellulose plates (Millipore) were coated with […] IFNγ mAb (Mabtech) and incubated over night at 4° C. Plates were blocked with 10% human serum for 2 h at 37° C. 2.5×10^5 cells/well of pre-stimulated PBMC were pulsed with 1 μg/ml (HLA class I) or 2.5 μg/ml (HLA class II) peptide and incubated for 24-26 h. Readout was performed according to manufacturer's instructions. PHA was used as positive control. HLA-A*02 (KLFEKVKEV) (SEQ ID NO. 231) and B*07 (KPSEKIQVL) (SEQ ID NO. 232) restricted control peptides derived from benign tissues (HV-exclusive HLA ligands) served as negative control. Spots were counted using an ImmunoSpot S5 analyzer (CTL). T cell responses were considered to be positive when >10 spots/well were counted and the mean spot count per well was at least 3-fold higher than the mean number of spots in the negative control wells (according to the cancer immunoguiding program (CIP) guidelines).

MM.1S cells = assay: HLA class I ligand presentation upon carfilzomib treatment on MM.1S cells (LC-MS/MS); set-up: key to modulation upon carfilzomib-treatment 24 #1 / modulation upon carfilzomib-treatment 24 #2 / modulation upon carfilzomib-treatment 24 #3 / modulation upon carfilzomib-treatment 48 #1 / modulation upon carfilzomib-treatment 48 #2 / modulation upon carfilzomib-treatment 48 #3: −1: significantly down-modulated; 0: not signifcant/not detected; 1: significantly up-modulated; conditions: MM.1S cells, vs mock-treated controls; for modulation upon carfilzomib-treatment 24 #1 / modulation upon carfilzomib-treatment 24 #2 / modulation upon carfilzomib-treatment 24 #3: 24 h after carfilzomib treatment (100 nM, 1 h); for modulation upon carfilzomib-treatment 24 #1 / modulation upon carfilzomib-treatment 48 #1: biological replicate #1; for modulation upon carfilzomib-treatment 24 #2 / modulation upon carfilzomib-treatment 48 #2: biological replicate #2; for modulation upon carfilzomib-treatment 24 #3 / modulation upon carfilzomib-treatment 48 #3: biological replicate #3; for modulation upon carfilzomib-treatment 48 #1 / modulation upon carfilzomib-treatment 48 #2 / modulation upon carfilzomib-treatment 48 #3: 48 h after carfilzomib treatment (100 nM, 1 h)
Procedure: HLA class I and II molecules were isolated using standard immunoaffinity purification as described using the pan-HLA class I specific mAb W6/32, the pan-HLA class II specific mAb T039 and the HLA-DR specific mAB L243 (produced in house).
HLA ligand extracts were analyzed in 5 technical replicates as described previously. In brief, peptide samples were separated by nanoflow HPLC (RSLCnano, ThermoFisher) using a 50 μm×25 cm PepMap RSLC column (Thermo Fisher) and a gradient ranging from 2.4 to 32.0% acetonitrile over the course of 90 min. Eluting peptides were analyzed in an online coupled LTQ Orbitrap XL mass spectrometer (Thermo Fisher) using a top 5 CID (collision induced dissociation) fragmentation method.
Data processing was performed as described previously. In brief, the Mascot search engine (Mascot 2.2.04; Matrix Science, London, UK) was implemented to search the human proteome as comprised in the Swiss-Prot database (20,279 reviewed protein sequences, September 2013) without enzymatic restriction. Potential mutated HLA ligands were searched implementing a database containing the human proteome concatenated with proteins containing single amino acid variants (SAVs) listed in the COSMIC database (http://cancer.sanger.ac.uk/cosmic/). Only recurrent SAVs described in 2 or more samples of hematological origin were included. Oxidized methionine was allowed as a dynamic modification. The false discovery rate was estimated using the Percolator algorithm and set to 5%. Peptide lengths were limited to 8-12 amino acids for HLA class I and 12-25 amino acids for HLA class II. Protein inference was disabled, allowing for multiple protein annotations of peptides. HLA annotation was performed using SYFPEITHI [46] or an extended in-house database. Experimental validation of peptide identifications and HLA annotations was performed by mass spectrometric and functional characterization of synthetic peptides for a subset of peptides.
The inventors quantitatively assessed HLA class I ligand presentation during proteasome inhibitor therapy. Observed was a considerable plasticity of the HLA class I ligandome after treatment with carfilzomib with 17.9±1.1% of MM.1S ligands and 11.2±0.7% of U266 ligands (mean of three biological replicates ±s.d.) showing significant modulation (fold-change ≥4, Po0.01 after Benjamini-Hochberg correction) at t24 h compared with mock-treated controls. Briefly, Cultured MCLs (MM.1S and U266) and primary myeloma samples were incubated with carfilzomib (100 nM, Kyprolis®, available, e.g., from Onyx Pharmaceuticals, Inc.) as an example for a proteasome inhibitor for a 1-h period, followed by three washes in PBS (Gibco) and recultured for additional 24 or 48 h. Controls were incubated with vehicle control (glucose 5%) for 1 h, followed by identical washing and incubation for 24 or 48 h. Experiments were conducted in three biological replicates where indicated.

U266 cells = assay: HLA class I ligand presentation upon carfilzomib treatment on U266 cells (LC-MS/MS); set-up: key to modulation upon carfilzomib-treatment 24 #1 / modulation upon carfilzomib-treatment 24 #2 / modulation upon carfilzomib-treatment 24 #3 / modulation upon carfilzomib-treatment 48 #1 / modulation upon carfilzomib-treatment 48 #2 / modulation upon carfilzomib-treatment 48 #3: −1: significantly down-modulated; 0: not signifcant/not detected; 1: significantly up-modulated; conditions: U266 cells, vs mock-treated controls; for modulation upon carfilzomib-treatment 24 #1 / modulation upon carfilzomib-treatment 24 #2 / modulation upon carfilzomib-treatment 24 #3: 24 h after carfilzomib treatment (100 nM, 1 h); for modulation upon carfilzomib-treatment 24 #1 / modulation upon carfilzomib-treatment 48 #1: biological replicate #1; for modulation upon carfilzomib-treatment 24 #2 / modulation upon carfilzomib-treatment 48 #2: biological replicate #2; for modulation upon carfilzomib-treatment 24 #3 / modulation upon carfilzomib-treatment 48 #3: biological replicate #3; for modulation upon carfilzomib-treatment 48 #1 / modulation upon carfilzomib-treatment 48 #2 / modulation upon carfilzomib-treatment 48 #3: 48 h after carfilzomib treatment (100 nM, 1 h)
Procedure, shortened: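 MM.1S and U266 myeloma cells were pulsed with 100 nM carfilzomib for 1 h, washed and recultured 24 or 48 h; controls got 5% glucose vehicle. HLA class I ligands were immunopurified with W6/32 and analysed by nanoLC-MS/MS (CID, 5 technical replicates, 5% FDR, 8-12-mers). Modulation versus mock was scored as fold-change ≥4 with Benjamini-Hochberg-corrected significance.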

[2] = 12-day recall IFNγ ELISPOT, PBMC of MM patients, HLA class I peptide

Sequence | specific T-cell recognition, MM patients positive/tested [1, 2] | specific T-cell recognition, share of MM patients [1, 2] [%] | modulation upon carfilzomib-treatment 24 #1 (MM.1S cells) | modulation upon carfilzomib-treatment 24 #2 (MM.1S cells) | modulation upon carfilzomib-treatment 24 #3 (MM.1S cells) | modulation upon carfilzomib-treatment 48 #1 (MM.1S cells) | modulation upon carfilzomib-treatment 48 #2 (MM.1S cells) | modulation upon carfilzomib-treatment 48 #3 (MM.1S cells) | modulation upon carfilzomib-treatment 24 #1 (U266 cells) | modulation upon carfilzomib-treatment 24 #2 (U266 cells) | modulation upon carfilzomib-treatment 24 #3 (U266 cells) | modulation upon carfilzomib-treatment 48 #1 (U266 cells) | modulation upon carfilzomib-treatment 48 #2 (U266 cells) | modulation upon carfilzomib-treatment 48 #3 (U266 cells) | memory T-cell responses, MM patients positive/tested ([1]; IFNγ ELISPOT, HLA class II peptide, MM patients)
KAMEAASSL (listed as Homo sapiens) [SEQ ID NO: 82] | 2/16 | 13 |  |  |  |  |  |  |  |  |  |  |  |  | 
KPRPPQGL |  |  | 1 | 1 | 1 | 1 | 0 | 0 | 0 | 0 | 0 | 1 | 1 | 1 | 
NSVIIVDKNGRLV (listed as Homo sapiens) [SEQ ID NO: 237] |  |  |  |  |  |  |  |  |  |  |  |  |  |  | 2/5
FAYPAIRYL |  |  | 0 | 0 | 0 | 0 | 0 | 0 | 0 | 0 | 0 | 1 | 0 | 1 | 
TPSSRPASL |  |  | 1 | 1 | 0 | 0 | 0 | 0 | 0 | 0 | 0 | 0 | 0 | 0 | 
KPQPRPQTL |  |  | 1 | 1 | 1 | 0 | 0 | 0 | 0 | 0 | 0 | 0 | 0 | 0 | 
RPQLKGVVL |  |  | 0 | 0 | 0 | 0 | 0 | 0 | 0 | 0 | 0 | 0 | 0 | 0 | 
IPAKPPVSF |  |  | 0 | 0 | 0 | 0 | 0 | 0 | 0 | 0 | 0 | 0 | 0 | 0 | 
